In patent publication US11535630B2, “Apelin receptor (APJ) agonists and uses thereof” (Research Triangle Institute, priority 2015, dated 2022):
Structures can show the parent of a compound that is named as a salt.

Target: T1, apelin receptor (APJ) (Homo sapiens, UniProt P35414)
T1 sequence (P35414 1-380): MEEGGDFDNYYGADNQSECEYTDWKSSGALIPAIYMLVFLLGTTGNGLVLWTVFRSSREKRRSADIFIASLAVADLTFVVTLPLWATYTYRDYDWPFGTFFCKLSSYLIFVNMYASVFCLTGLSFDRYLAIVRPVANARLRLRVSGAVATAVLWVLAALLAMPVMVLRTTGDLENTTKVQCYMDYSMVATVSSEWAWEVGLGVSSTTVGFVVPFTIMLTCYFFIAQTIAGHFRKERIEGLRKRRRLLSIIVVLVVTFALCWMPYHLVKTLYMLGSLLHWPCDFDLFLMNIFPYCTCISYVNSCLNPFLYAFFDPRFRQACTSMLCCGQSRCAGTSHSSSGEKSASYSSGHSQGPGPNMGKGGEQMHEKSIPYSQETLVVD
Assay: In vitro apelin agonist activity (methods of Giddings et al., Apelin-13 as positive control)
Type: cell-based
Conditions: in vitro apelin agonist activity, methods of Giddings et al., Apelin-13 as positive control; read-out: EC50 (nM) Ave
Excerpt: Characterization of the Apelin Agonist Activity of the Compounds
1:39-47, the contents of which are hereby incorporated by reference in its entirety. Using the methods described in Giddings et al. and Apelin-13 as a positive control.

Compound | EC50
COc1cccc(OC)c1-c1cc(C(=O)N[C@@H](CCc2ccccc2)CC(=O)Nc2nccs2)nn1C1CCCC1 [compound 380, (3S)-3-{[1-cyclopentyl-5-(2,6-dimethoxyphenyl)-1H-pyrazol-3-yl]formamido}-5-phenyl-N-(1,3-thiazol-2-yl)pentanamide] | 94 nM
O=C(CCNC(=O)c1cc(-c2ccccc2C(F)(F)F)n(C2CCCC2)n1)Nc1nccs1 [compound 449, 3-({1-cyclopentyl-5-[2-(trifluoromethyl)phenyl]-1H-pyrazol-3-yl}formamido)-N-(1,3-thiazol-2-yl)propanamide] | 12700 nM
O=C(C[C@H](CCN1CCCCC12COC2)NC(=O)c1cc(-c2ccccc2C(F)(F)F)n(C2CCCC2)n1)NC1CCC1 [compound 522] | 64 nM
CC(C(=O)O)[C@H](CCN1CC2C(C1)C2(F)F)NC(=O)c1cc(-c2ccccc2C(F)(F)F)n(C2CCCC2)n1 (stereo partly drawn) [compound 635, (2R,3S)-3-({1-cyclopentyl-5-[2-(trifluoromethyl)phenyl]-1H-pyrazol-3-yl}formamido)-5-{6,6-difluoro-3-azabicyclo[13.1.0]hexan-3-yl}-2-methylpentanoic acid] | 13 nM
CN1CC(NC(=O)C[C@H](CCc2ccc(F)cc2)NC(=O)c2cc(-c3ccccc3C(F)(F)F)n(C3CCCC3)n2)C1 [compound 482, (3S)-3-({1-cyclopentyl-5-[2-(trifluoromethyl)phenyl]-1H-pyrazol-3-yl}formamido)-5-(4-fluorophenyl)-N-(1-methylazetidin-3-yl)pentanamide] | 474 nM
O=C(C[C@H](CCN1CCCCC1)NC(=O)c1cc(-c2ccccc2Cl)n(C2CCCC2)n1)NC1CCC1 [compound 407, (3S)-3-{[5-(2-chlorophenyl)-1-cyclopentyl-1H-pyrazol-3-yl]formamido}-N-cyclobutyl-5-(piperidin-1-yl)pentanamide] | 162 nM
CC(c1nnn[nH]1)[C@H](CCN1CC2C(C1)C2(F)F)NC(=O)c1cc(-c2ccccc2C(F)(F)F)n(C2CCCC2)n1 (stereo partly drawn) [compound 637, 1-cyclopentyl-N-[(3S)-1-{6,6-difluoro-3-azabicyclo[3.1.0]hexan-3-yl}-4-(1H-1,2,3,4-tetrazol-5-yl)pentan-3-yl]-5-[2-(trifluoromethyl)phenyl]-1H-pyrazole-3-carboxamide] | 21 nM
COc1cccc(OC)c1-c1cc(C(=O)N[C@@H](CCNCc2ccncc2)CC(=O)O)nn1C1CCCC1 [compound 310, (3S)-3-{[1-cyclopentyl-5-(2,6-dimethoxyphenyl)-1H-pyrazol-3-yl]formamido}-5-[(pyridin-4-ylmethyl)amino]pentanoic acid] | > 10000 nM
COc1cccc(OC)c1-c1cc(C(=O)N[C@@H](CCc2cccnc2)CC(=O)NC2CCC2)nn1C1CCCC1 [compound 420, (3S)-N-cyclobutyl-3-{[1-cyclopentyl-5-(2,6-dimethoxyphenyl)-1H-pyrazol-3-yl]formamido}-5-(pyridin-3-yl)pentanamide] | 883 nM
COc1cccc(OC)c1-c1cc(C(=O)N[C@H](CC(=O)O)Cc2ccccc2)nn1C1CCCC1 [compound 401, (3S)-3-{[1-cyclopentyl-5-(2,6-dimethoxyphenyl)-1H-pyrazol-3-yl]formamido}-4-phenylbutanoic acid] | > 10000 nM
CCc1ccccc1-c1cc(C(=O)N[C@@H](CCN2CCCCC2)CC(=O)O)nn1C1CCCC1 [compound 403, (3S)-3-{[1-cyclopentyl-5-(2-ethylphenyl)-1H-pyrazol-3-yl]formamido}-5-(piperidin-1-yl)pentanoic acid hydrochloride] | 42 nM
CN(CC[C@@H](CC(=O)NC1CCC1)NC(=O)c1cc(-c2ccccc2C(F)(F)F)n(C2CCCC2)n1)C1CCCCC1 [compound 483] | 14 nM
COCCN(C)C(=O)[C@H](CCc1ccccc1)NC(=O)c1cc(-c2ccccc2C(F)(F)F)n(C2CCCC2)n1 [compound 542, (2S)-2-({1-cyclopentyl-5-[2-(trifluoromethyl)phenyl]-1H-pyrazol-3-yl}formamido)-N-(2-methoxyethyl)-N-methyl-4-phenylbutanamide] | 105 nM
O=C(O)C[C@@H](NC(=O)c1cc(-c2ccccc2C(F)(F)F)n(C2CCCC2)n1)C(=O)NC1CCOCC1 [compound 559, (3R)-3-({1-cyclopentyl-5-[2-(trifluoromethyl)phenyl]-1H-pyrazol-3-yl}formamido)-3-[(oxan-4-yl)carbamoyl]propanoic acid] | 596 nM

Next, values leading:

EC50 | Compound
64 nM | O=C(C[C@H](CCN1CCCCC1)NC(=O)c1cc(-c2ccccc2C(F)(F)F)n(C2CCCC2)n1)NC1CCC1 [compound 408, (3S)-N-cyclobutyl-3-({1-cyclopentyl-5-[2-(trifluoromethyl)phenyl]-1H-pyrazol-3-yl]formamido)-5-(piperidin-1-yl)pentanamide]
528 nM | O=C(O)C[C@H](CCN1CC2(CCC2(F)F)C1)NC(=O)c1cc(-c2ccccc2C(F)(F)F)n(C2CCCC2)n1 [compound 591, (3S)-3-({1-cyclopentyl-5-[2-(trifluoromethyl)phenyl]-1H-pyrazol-3-yl]formamido)-5-{5,5-difluoro-2-azaspiro[3.3]heptan-2-yl}pentanoic acid]
> 10000 nM | CC(C)(C)Cn1nc(C(=O)N[C@@H](CCN2CCCC(F)(F)C2)CC(=O)O)cc1-c1ccccc1C(F)(F)F [compound 568, (3S)-5-(3,3-difluoropiperidin-1-yl)-3-{[1-(2,2-dimethylpropyl)-5-[2-(trifluoromethyl)phenyl]-1H-pyrazol-3-yl]formamido}pentanoic acid]
401 nM | O=C(O)C[C@H](CCN1CCCC(F)(F)C1)NC(=O)c1cc(-c2ccccc2C(F)(F)F)n(CC2CC2)n1 [compound 557, (3S)-3-{[1-(cyclopropylmethyl)-5-[2-(trifluoromethyl)phenyl]-1H-pyrazol-3-yl]formamido}-5-(3,3-difluoropiperidin-1-yl)pentanoic acid]
134 nM | O=C(C[C@H](CCN1CCCC(F)(F)C1)NC(=O)c1cc(-c2ccccc2C(F)(F)F)n(C2CCCC2)n1)NS(=O)(=O)C(F)(F)F [compound 529, (3S)-3-({1-cyclopentyl-5-[2-(trifluoromethyl)phenyl]-1H-pyrazol-3-yl}formamido)-5-(3,3-difluoropiperidin-1-yl)-N-(trifluoromethane)sulfonylpentanamide]
77 nM | O=C(O)C[C@H](CCN1C[C@H](F)[C@@H](F)C1)NC(=O)c1cc(-c2ccccc2C(F)(F)F)n(C2CCCC2)n1 [compound 629, (3S)-3-({1-cyclopentyl-5-[2-(trifluoromethyl)phenyl]-1H-pyrazol-3-yl}formamido)-5-[(3S,4S)-3,4-difluoropyrrolidin-1-yl]pentanoic acid]
> 10000 nM | O=C(O)C[C@H](CCN1CCCC(F)(F)C1)NC(=O)c1cc(-c2cnccc2Cl)n(C2CCCC2)n1 [compound 467, (3S)-3-{[5-(4-chloropyridin-3-yl)-1-cyclopentyl-1H-pyrazol-3-yl]formamido}-5-(3,3-difluoropiperidin-1-yl)pentanoic acid]
> 10000 nM | O=C(O)C[C@H](CN1CCCC(F)(F)C1)NC(=O)c1cc(-c2ccccc2C(F)(F)F)n(C2CCCC2)n1 [compound 519, (3R)-3-({1-cyclopentyl-5-[2-(trifluoromethyl)phenyl]-1H-pyrazol-3-yl]formamido)-4-(3,3-difluoropiperidin-1-yl)butanoic acid]
